Laboratory results published in patent publication US20250282895A1, “PHARMACEUTICAL COMPOSITIONS OF CHEMOTHERAPEUTIC AGENTS BASED ON BETA-S[…]-AMINO ACID DERIVATIVES” (priority 2021, published 2025).
Structures can show the parent of a compound that is named as a salt.

Experiment: Comparative stability, Formulation 4 (based on Treanda, mannitol)
Type: physicochemical
Experimental: The stability of Compound (1c) either as the HCl salt or as the free base was compared to the stability of melphalan HCl and/or bendamustine HCl in various pharmaceutical formulations and at different concentrations and at temperatures of 0° C. or 25° C.
The stability of the compounds in the pharmaceutical formulations was determined at concentrations within the range from 0.4 mg/mL to 0.5 mg/mL, from 0.9 mg/mL to 1.1 mg/mL, and from 1.8 mg/mL to 2.1 mg/mL.
The amount of the active pharmaceutical ingredient (API) (Compound (1c), melphalan or bendamustine) in the pharmaceutical formulations at different times during storage was determined using HPLC/UV as described in detail for Example 4 and Example 5.
Treanda® is an injectable formulation of bendamustine hydrochloride, 1H-benzimidazole-2-butanoic acid, 5-[bis(2-chloroethyl)amino]-1-methyl-, 4-(5-(bis(2-chloroethyl)amino)-1-methyl-1H-benzo[d]imidazol-2-yl) butanoic acid monohydrochloride approved by the FDA. Treanda® for injection is provided in a vial containing either 25 or 100 mg of bendamustine HCl as a white to off-white lyophilized powder. Each vial contains either 25 mg or 100 mg of bendamustine hydrochloride and 42.5 mg or 170 mg of mannitol, USP, which is reconstituted in either 0.9% sodium chloride injection, USP, or 2.5% dextrose/0.45% sodium chloride solution injection, USP to a final concentration of 0.2 mg/mL-0.6 mg/mL and adjusted to a pH from 2.5 to 3.5.
A series of 12 mL glass vials each containing 12.5 mg (0.0317 mmol) of bendamustine mono-hydrochloride salt (C16H21C12N3O2·HCl, 394.72 g/mol; MedKoo, 200470) (corresponding to 11.3 mg of bendamustine as the free base) were prepared through weighing out the commercial compound into the vials. To each of the vials either containing bendamustine mono-hydrochloride salt was added 21.3 mg (0.117 mmol) of D-mannitol (C6H14O6, MW 182.17 g/mol; SigmaAldrich, M1902). The mixtures were dissolved in 2.0 mL of double distilled water (dd-H2O) (Arrowhead), the clear colorless solutions were frozen at −78° C. (dry ice/acetone bath), and the solvents were lyophilized off at about 100 mTorr within about 16 h to afford colorless solids.
A stock solution was prepared by dissolving 85.0 mg (0.255 mmol) of Compound (1c) (free base) and 170.4 mg of D-mannitol (0.935 mmol) (C6H14O6, MW 182.17 g/mol; SigmaAldrich, M1902), and 0.503 mL of 0.5072 M aq. HCl (0.255 mmol, 1.0 eq.) (Fluka, 318957) in about 16.0 mL of a mixture of acetonitrile/water (1:1, v/v) with vortexing in clean graduated glass cylinder (25 mL) to afford a stock solution of Compound (1c) as a mono-HCl salt of a concentration of 5.313 mg/mL and a D-mannitol concentration of 10.65 mg/mL. This solution was filtered through a 0.22 μm PTFE syringe filter into a clean 25 mL Erlenmeyer flask. Aliquots of 2.0 mL (2× 1.0 mL; 2× 5.313 mg) of this stock solution were rapidly pipetted into clean 12 mL scintillation vials. The aliquots were frozen at −78° C. (dry ice/acetone bath) and lyophilized at about 100 mTorr for about 16 hours to provide test vials each containing 11.8 mg (0.0319 mmol) of Compound (1c) mono-hydrochloride salt (mono-HCl salt) (corresponding to 10.6 mg of Compound (1c) as a free base) and 21.3 mg (0.117 mmol) of D-mannitol as a colorless powdery solid.
The materials in the vials were dissolved 2.5 mL of double-distilled water (dd-H2O) (Arrowhead) to provide clear colorless, non-viscous stock solutions of a concentration of 4.24 mg/mL of Compound (1c) as the monohydrochloride salt or 4.54 mg/mL of bendamustine as the mono-hydrochloride salt, respectively.
1.0 mL of the stock solution containing 4.24 mg/mL of Compound (1c) as the monohydrochloride salt was diluted with 9.0 mL of 0.9% saline to afford 10.0 mL of a test solution of a concentration of 0.424 mg/mL of Compound (1c) as the monohydrochloride salt and with a pH of about 4. […]

Cc1ccc(N(CCCl)CCCl)cc1C[C@H](N)CC(=O)O [Compound (1c)•HCl, (S)-3-amino-4-(5-(bis(2-chloroethyl)amino)-2-methylphenyl) butanoic acid mono hydrochloride salt]
% API (Formulation 4, 0° C., 0.5 hours, 0.4-0.5 mg/mL, pH 4-5 (bendamustine), pH 4 (Compound (1c)•HCl)): 92%
% API (Formulation 4, 0° C., 0.5 hours, 0.9-1.1 mg/mL, pH 4): 92%
% API (Formulation 4, 0° C., 0.5 hours, 1.8-2.1 mg/mL, pH 4): 93%
% API (Formulation 4, 0° C., 2.0 hours, 0.4-0.5 mg/mL, pH 4-5 (bendamustine), pH 4 (Compound (1c)•HCl)): 78%
% API (Formulation 4, 0° C., 2.0 hours, 0.9-1.1 mg/mL, pH 4): 73%
% API (Formulation 4, 0° C., 2.0 hours, 1.8-2.1 mg/mL, pH 4): 80%
% API (Formulation 4, 25° C., 0.5 hours, 0.4-0.5 mg/mL, pH 4-5 (bendamustine), pH 4 (Compound (1c)•HCl)): 95%
% API (Formulation 4, 25° C., 0.5 hours, 0.9-1.1 mg/mL, pH 4-5 (bendamustine), pH 4 (Compound (1c)•HCl)): 95%
% API (Formulation 4, 25° C., 0.5 hours, 1.8-2.1 mg/mL, pH 4-5 (bendamustine), pH 4 (Compound (1c)•HCl)): 92%
% API (Formulation 4, 25° C., 2.0 hours, 0.4-0.5 mg/mL, pH 4-5 (bendamustine), pH 4 (Compound (1c)•HCl)): 81%
% API (Formulation 4, 25° C., 2.0 hours, 0.9-1.1 mg/mL, pH 4-5 (bendamustine), pH 4 (Compound (1c)•HCl)): 81%
% API (Formulation 4, 25° C., 2.0 hours, 1.8-2.1 mg/mL, pH 4-5 (bendamustine), pH 4 (Compound (1c)•HCl)): 75%
